Results on 18 molecules are retold here after ChEMBL document CHEMBL3046566, “In vitro antimycobacterial activity of novel N-(4-(substituted phenyl amino)-6-(pyridin-2-ylamino)-1,3,5-triazin-2-yl)isonicotinohydrazide” (Med Chem Res, 2011).

Values after ≈ are worked out from the molar mass of the structure shown.

The test system of series [1] is Mycobacterium tuberculosis. The experiment in a line: Growth inhibition of Mycobacterium tuberculosis H37Rv ATCC 27294 at 0.1277 uM by radiometric analysis. It is filed as functional. The following applies: read-out: GI.
The test system of series [2] is Mycobacterium tuberculosis. The experiment in a line: Antimycobacterial activity against Mycobacterium tuberculosis H37Rv ATCC 27294 by microdilution alamar blue assay. It is filed as functional. In general terms: In broth dilution the organism is exposed to a series of concentrations in liquid medium.
Series [3] has as its system Mycobacterium tuberculosis. The experiment in a line: Growth inhibition of Mycobacterium tuberculosis H37Rv ATCC 27294 at 0.0250 uM by radiometric analysis. It counts as functional. The following applies: read-out: GI.
For series [4], the system named is Mycobacterium tuberculosis. The experiment in a line: Growth inhibition of Mycobacterium tuberculosis H37Rv ATCC 27294 at 0.1110 uM by radiometric analysis. It counts as functional. The settings on record: read-out: GI.
The subject of series [5] is Mycobacterium tuberculosis. The experiment in a line: Growth inhibition of Mycobacterium tuberculosis H37Rv ATCC 27294 at 0.1218 uM by radiometric analysis. It is filed as functional. The following applies: read-out: GI.
Series [6] has as its system Mycobacterium tuberculosis. The experiment in a line: Growth inhibition of Mycobacterium tuberculosis H37Rv ATCC 27294 at 0.1127 uM by radiometric analysis. It counts as functional. The following applies: read-out: GI.
Series [7] has as its system Mycobacterium tuberculosis. The experiment in a line: Growth inhibition of Mycobacterium tuberculosis H37Rv ATCC 27294 at 0.0677 uM by radiometric analysis. It is filed as functional. The following applies: read-out: GI.
Series [8] deals with Mycobacterium tuberculosis. The experiment in a line: Growth inhibition of Mycobacterium tuberculosis H37Rv ATCC 27294 at 0.6890 uM by radiometric analysis. The following applies: read-out: GI. It is filed as functional.
The test system of series [9] is Vero. The experiment in a line: Cytotoxicity against Chlorocebus aethiops (African green monkey) Vero cells up to 62.5 ug/ml after 72 hr by MTT assay. It is filed as cell-based. The settings on record: chlorocebus sabaeus. (In general: Formazan colour is commonly taken as a measure of viable cells.)
Series [10] deals with Mycobacterium tuberculosis. The experiment in a line: Growth inhibition of Mycobacterium tuberculosis H37Rv ATCC 27294 at 0.0211 uM by radiometric analysis. It counts as functional. The settings on record: read-out: GI.
Series [11] relates to Mycobacterium tuberculosis. The experiment in a line: Growth inhibition of Mycobacterium tuberculosis H37Rv ATCC 27294 at 0.0614 uM by radiometric analysis. It is filed as functional. The settings on record: read-out: GI.
Series [12] relates to Mycobacterium tuberculosis. The experiment in a line: Growth inhibition of Mycobacterium tuberculosis H37Rv ATCC 27294 at 0.0311 uM by radiometric analysis. It counts as functional. The following applies: read-out: GI.
The subject of series [13] is Mycobacterium tuberculosis. The experiment in a line: Growth inhibition of Mycobacterium tuberculosis H37Rv ATCC 27294 at 0.0418 uM by radiometric analysis. It counts as functional. The settings on record: read-out: GI.
Series [14] relates to Mycobacterium tuberculosis. The experiment in a line: Growth inhibition of Mycobacterium tuberculosis H37Rv ATCC 27294 at 0.1229 uM by radiometric analysis. It is filed as functional. The following applies: read-out: GI.
Series [15] deals with Mycobacterium tuberculosis. The experiment in a line: Growth inhibition of Mycobacterium tuberculosis H37Rv ATCC 27294 at 0.7110 uM by radiometric analysis. It counts as functional. The following applies: read-out: GI.
Series [16] deals with Mycobacterium tuberculosis. The experiment in a line: Growth inhibition of Mycobacterium tuberculosis H37Rv ATCC 27294 at 0.1214 uM by radiometric analysis. It counts as functional. The following applies: read-out: GI.
Series [17] deals with Mycobacterium tuberculosis. The experiment in a line: Growth inhibition of Mycobacterium tuberculosis H37Rv ATCC 27294 at 0.1109 uM by radiometric analysis. It is filed as functional. The following applies: read-out: GI.
Series [18] relates to Mycobacterium tuberculosis. The experiment in a line: Growth inhibition of Mycobacterium tuberculosis H37Rv ATCC 27294 at 0.1211 uM by radiometric analysis. It counts as functional. The following applies: read-out: GI.
The subject of series [19] is Mycobacterium tuberculosis. The experiment in a line: Growth inhibition of Mycobacterium tuberculosis H37Rv ATCC 27294 at 0.0650 uM by radiometric analysis. It is filed as functional. The following applies: read-out: GI.
Series [20] deals with Mycobacterium tuberculosis. The experiment in a line: Growth inhibition of Mycobacterium tuberculosis H37Rv ATCC 27294 at 0.0550 uM by radiometric analysis. It is filed as functional. The following applies: read-out: GI.

In the case of `O=C(NNc1nc(Nc2ccc(O)cc2)nc(Nc2ccccn2)n1)c1ccncc1`, the inhibition of growth at 0.1277 µM in series [1] turned out to be 77%.
What is called MIC is the lowest concentration that inhibits growth of the organism. Low readings indicate inhibition by little substance, high ones a need for much substance. For `O=C(NNc1nc(Nc2ccc(Cl)cc2)nc(Nc2ccccn2)n1)c1ccncc1`, the MIC in [2] turned out to be 5.91 µg/mL (≈ 13.6 µM). The inhibition of growth at 0.025 µM in series [3] was 94%.
In the case of `Cc1ccccc1Nc1nc(NNC(=O)c2ccncc2)nc(Nc2ccccn2)n1`, the inhibition of growth at 0.111 µM in series [4] amounted to 71%.
Turning to `Cc1cccc(Nc2nc(NNC(=O)c3ccncc3)nc(Nc3ccccn3)n2)c1`, in series [5], the inhibition of growth at 0.1218 µM amounted to 74%.
Consider `Cc1ccc(Nc2nc(NNC(=O)c3ccncc3)nc(Nc3ccccn3)n2)cc1`, for which, in series [6], the inhibition of growth at 0.1127 µM is 77%.
In the case of `COc1ccccc1Nc1nc(NNC(=O)c2ccncc2)nc(Nc2ccccn2)n1`, the inhibition of growth at 0.0677 µM in series [7] came out at 81%.
On to `COc1cccc(Nc2nc(NNC(=O)c3ccncc3)nc(Nc3ccccn3)n2)c1`, for which, in series [8], the inhibition of growth at 0.689 µM came out at 83%.
The molecule `COc1ccc(Nc2nc(NNC(=O)c3ccncc3)nc(Nc3ccccn3)n2)cc1` registered an MIC in series [2] of 4.11 µg/mL (≈ 9.57 µM). Besides, the Activity entry in series [9] is “Non-toxic”. Besides, the inhibition of growth at 0.0211 µM in series [10] stood at 94%.
`O=C(NNc1nc(Nc2ccccn2)nc(Nc2ccc(Cl)cc2Cl)n1)c1ccncc1`: the lowest concentration to inhibit growth in series [2] (MIC) was 5.92 µg/mL (≈ 12.6 µM). In addition, in series [11], the inhibition of growth at 0.0614 µM turned out to be 92%. For the same molecule, in series [9], the Activity entry is given as “Non-toxic”.
The molecule `O=C(NNc1nc(Nc2ccccn2)nc(Nc2c(Cl)cccc2Cl)n1)c1ccncc1` yielded an MIC in [2] of 4.69 µg/mL (≈ 10 µM). Further, the inhibition of growth at 0.0311 µM in [12] came out at 91%. The Activity entry in series [9] is listed as “Non-toxic”.
As to `NS(=O)(=O)c1ccc(Nc2nc(NNC(=O)c3ccncc3)nc(Nc3ccccn3)n2)cc1`, inhibition of growth in series [2] (MIC) required 6 µg/mL (≈ 12.5 µM). The inhibition of growth at 0.0418 µM in series [13] was determined as 90%. The Activity entry in series [9] is “Non-toxic”.
Take `O=C(NNc1nc(Nc2ccccn2)nc(Nc2ccccc2O)n1)c1ccncc1`: the inhibition of growth at 0.1229 µM in series [14] was determined as 71%.
As for `O=C(NNc1nc(Nc2ccccc2)nc(Nc2ccccn2)n1)c1ccncc1`, in [15], the inhibition of growth at 0.711 µM was determined as 71%.
As to `O=C(NNc1nc(Nc2ccccn2)nc(Nc2ccccc2[N+](=O)[O-])n1)c1ccncc1`, the inhibition of growth at 0.1214 µM in series [16] was 67%.
As to `O=C(NNc1nc(Nc2cccc([N+](=O)[O-])c2)nc(Nc2ccccn2)n1)c1ccncc1`, the inhibition of growth at 0.1109 µM in series [17] came to 72%.
Take `O=C(NNc1nc(Nc2ccc([N+](=O)[O-])cc2)nc(Nc2ccccn2)n1)c1ccncc1`: the inhibition of growth at 0.1211 µM in [18] was 69%.
On to `O=C(NNc1nc(Nc2ccccn2)nc(Nc2ccccc2Cl)n1)c1ccncc1`, for which the inhibition of growth at 0.065 µM in [19] is 80%.
`O=C(NNc1nc(Nc2cccc(Cl)c2)nc(Nc2ccccn2)n1)c1ccncc1`: the inhibition of growth at 0.055 µM in [20] came out at 82%.
